According to US20230382923A1, “FUSED TETRACYCLIC QUINAZOLINE DERIVATIVES AS INHIBITORS OF ERBB2” (EnLiven Therapeutics, Inc., priority 2021, published 2023):

Key:
[1] = target: phosphorylated ERBB2 (pERBB2) (Homo sapiens (Human), UniProt P04626); experiment: Detection of phosphorylated ERBB2 (pERBB2) by ELISA in BT-474 cells; format: cell-based; details: four hours incubation with compound
Method: BT-474 cells were seeded into a 96-well at 2.0*10^4cells/100 μl/well. Compounds were dissolved and serially diluted in DMSO. The compounds were then were added, mixed, and incubated for four hours at 37° C., 5% CO2. […] Following the four hour incubation with compounds, cell lysates were prepared. Plates were centrifuged for 5 min at 3000 RPM, and supernatant was removed from each well. Cells were washed 3 times by resuspension in 150 μl PBS, followed by centrifugation and removal of the supernatant, as above. 100 μl of cell lysis buffer (Boston BioProducts, cat #BP-115D) supplied with 1×complete ULTRA cocktail inhibitor (Thermo ScientificTM, cat #78443) was then added to the washed cells. Cells were incubated with lysis buffer for 1 hour at 4° C., and then stored at -80° C. Enzyme-linked immunosorbent assays (ELISA) were performed to measure phosphorylated ERBB2 levels. […] The next day, plates were washed with PBS+0.05% Tween20 (PBST). 150 μl of 5% BSA blocking solution was added for 1 hour at room temperature, with shaking. Plates were washed with PBST. Cell lysates were thawed and 100 μl of lysate was added to the ELISA plate. The plates were incubated for 2 hours at room temperature, with shaking. ELISA plates were then washed with PBST and 100 μl of an HRP-labeled detection antibody that binds phosphorylated tyrosine (R&D Systems, cat #841913) was added to each well. Plates were incubated for 1 hour at room temperature, with shaking. Plates were then washed with PBST, and 100 μl TMB substrate solution (R&D Systems, cat #DY999) was added. Plate were incubated in the dark for 20 minutes at room temperature. 50 μl of Stop solution (R&D Systems, cat #DY994) (50 μl) was added to each well and mixed. […] The remaining kinase activity by calculated using the following formula: % Relative activity=100×([…]). The low and high control values (“LC” and “HC”) were generated from lysate from wells without cells or with cells treated with 0.1% DMSO, respectively.

[2] = target: phosphorylated EGFR (pEGFR) (Homo sapiens (Human), UniProt P00533); experiment: Detection of phosphorylated EGFR (pEGFR) by AlphaLISA in A431 cells; format: cell-based; details: A431 cells (10% FBS), 4 hours incubation, EGF 30 ng/mL for 10 minutes
Chain of phosphorylated EGFR (pEGFR) (P00533 25-1210): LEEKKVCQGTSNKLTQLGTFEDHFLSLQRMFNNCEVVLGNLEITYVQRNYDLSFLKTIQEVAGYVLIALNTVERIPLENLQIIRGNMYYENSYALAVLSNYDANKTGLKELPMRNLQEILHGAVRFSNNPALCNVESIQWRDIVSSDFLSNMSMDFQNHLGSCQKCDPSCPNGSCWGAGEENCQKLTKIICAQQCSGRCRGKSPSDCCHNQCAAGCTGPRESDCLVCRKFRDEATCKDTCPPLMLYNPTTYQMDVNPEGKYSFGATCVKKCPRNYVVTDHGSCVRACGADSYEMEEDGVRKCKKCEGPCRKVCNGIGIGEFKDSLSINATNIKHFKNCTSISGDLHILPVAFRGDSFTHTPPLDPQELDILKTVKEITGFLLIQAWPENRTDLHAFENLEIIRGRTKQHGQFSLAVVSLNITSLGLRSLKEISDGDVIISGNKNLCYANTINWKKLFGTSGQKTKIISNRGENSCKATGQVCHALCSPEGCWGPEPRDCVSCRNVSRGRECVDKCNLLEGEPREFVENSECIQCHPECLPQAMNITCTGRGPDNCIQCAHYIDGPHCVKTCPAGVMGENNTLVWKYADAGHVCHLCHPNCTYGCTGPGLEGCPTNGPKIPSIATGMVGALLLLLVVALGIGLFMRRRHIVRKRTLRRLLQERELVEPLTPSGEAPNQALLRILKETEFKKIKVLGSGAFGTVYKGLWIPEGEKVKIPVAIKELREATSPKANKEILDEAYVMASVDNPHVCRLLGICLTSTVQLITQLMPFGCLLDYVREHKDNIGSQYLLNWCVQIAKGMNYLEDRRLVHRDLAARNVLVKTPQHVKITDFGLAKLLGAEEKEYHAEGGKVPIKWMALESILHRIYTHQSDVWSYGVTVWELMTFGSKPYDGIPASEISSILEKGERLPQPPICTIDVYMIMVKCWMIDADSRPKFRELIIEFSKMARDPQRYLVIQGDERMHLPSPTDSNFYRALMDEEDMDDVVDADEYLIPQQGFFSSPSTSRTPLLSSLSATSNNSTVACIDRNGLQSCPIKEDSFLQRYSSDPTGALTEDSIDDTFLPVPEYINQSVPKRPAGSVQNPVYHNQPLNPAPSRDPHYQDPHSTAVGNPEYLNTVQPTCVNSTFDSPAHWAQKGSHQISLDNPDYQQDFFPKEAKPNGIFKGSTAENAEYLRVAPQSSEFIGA
Method: […] were performed to measure phosphorylated EGFR levels using A431 cells (10% FBS). A431 (1.0*10^4cells/40 μl/well) cells were seeded in 384 well. Compounds were dissolved in DMSO, serially diluted in DMSO and then were added, mixed, and incubated for 4 hours at 37° C., […]. Following the 4-hours incubation, cells were stimulated for 10 minutes with EGF (Invitrogen, cat #PHG0311) at a final concentration of 30 ng/mL in the incubator. The media was aspirated and cells were lysed in 10 μL lysis buffer with protease and phosphatase inhibitors (PerkinElmer, cat #ALSU-PEGFR-A50K). The plates were placed on a shaker for 5 minutes and then incubated for 30 min at 4° C. for complete lysis. The lysate was transferred to an Optiplate (Perkin Elmer, cat #6007290).
Acceptor mix (PerkinElmer, cat #ALSU-PEGFR-A50K) was prepared just before use and 5 μL was dispensed to all the wells, followed by a 1.5-2 h incubation at room temperature in dark. The donor mix (PerkinElmer, cat #ALSU-PEGFR-A50K) was prepared under low light conditions prior to use and 5 μl of donor mix was added to all the wells under subdued lighting or green filters. The plates were placed on a shaker for 5 min, sealed, and incubated overnight at room temperature in dark. Plates were read on the Envision (PerkinElmer) using standard AlphaLISA settings.
The percentage of inhibition on EGFR phosphorylation was calculated following equation: % Inhibition=100×(LumHC−LumSample)/(LumHC−LumLC). The low and high controls (LC/HC) are generated from lysate from wells with cells treated with DMSO or […] Staurosporine (BioAustralis, cat #BIA-S1086), […]. IC50 values were calculated by fitting the Curve using XLfit (v5.3.1.3), equation 201: Y=Bottom+(Top−Bottom)/(1+10^((LogIC50−X)*HillSlope)).

Chain of phosphorylated ERBB2 (pERBB2) (P04626 23-1255): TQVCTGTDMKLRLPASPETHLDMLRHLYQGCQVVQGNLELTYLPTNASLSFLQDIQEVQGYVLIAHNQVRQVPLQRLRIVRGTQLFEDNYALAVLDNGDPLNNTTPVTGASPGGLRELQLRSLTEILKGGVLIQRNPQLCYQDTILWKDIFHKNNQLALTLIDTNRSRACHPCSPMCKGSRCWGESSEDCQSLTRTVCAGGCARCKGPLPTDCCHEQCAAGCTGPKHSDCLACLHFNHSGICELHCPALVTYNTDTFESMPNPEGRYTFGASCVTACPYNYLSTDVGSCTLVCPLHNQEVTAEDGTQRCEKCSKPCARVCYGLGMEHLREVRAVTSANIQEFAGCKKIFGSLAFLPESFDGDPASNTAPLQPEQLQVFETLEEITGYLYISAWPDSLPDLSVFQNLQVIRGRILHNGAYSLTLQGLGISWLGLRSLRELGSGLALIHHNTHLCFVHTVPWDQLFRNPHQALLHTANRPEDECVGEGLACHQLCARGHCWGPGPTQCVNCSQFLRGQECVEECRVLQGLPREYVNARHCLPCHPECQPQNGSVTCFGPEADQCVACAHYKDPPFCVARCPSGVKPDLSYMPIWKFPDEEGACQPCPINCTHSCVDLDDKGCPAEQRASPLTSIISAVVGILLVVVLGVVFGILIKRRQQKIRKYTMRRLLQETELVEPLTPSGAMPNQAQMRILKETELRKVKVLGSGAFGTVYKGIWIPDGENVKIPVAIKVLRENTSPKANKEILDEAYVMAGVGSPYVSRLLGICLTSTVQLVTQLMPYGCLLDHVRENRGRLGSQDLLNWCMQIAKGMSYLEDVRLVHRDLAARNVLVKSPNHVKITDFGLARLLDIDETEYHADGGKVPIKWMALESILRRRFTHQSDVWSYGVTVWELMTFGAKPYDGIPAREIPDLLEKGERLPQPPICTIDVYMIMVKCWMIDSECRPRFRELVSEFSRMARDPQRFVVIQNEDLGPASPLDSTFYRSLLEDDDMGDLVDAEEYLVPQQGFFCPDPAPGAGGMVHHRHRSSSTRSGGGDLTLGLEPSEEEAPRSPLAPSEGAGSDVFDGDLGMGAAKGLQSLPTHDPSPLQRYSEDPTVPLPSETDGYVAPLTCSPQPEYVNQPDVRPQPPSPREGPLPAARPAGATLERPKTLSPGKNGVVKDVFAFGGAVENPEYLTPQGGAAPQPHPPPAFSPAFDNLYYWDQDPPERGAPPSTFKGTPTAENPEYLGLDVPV

Structure (SMILES)	IC50 [1]	IC50 [2]
Cc1cc(Nc2ncnc3cc4c(nc23)N2CCN(C(=O)/C=C/CN(C)C)C(CO4)C2)c(F)cc1Oc1cncc(F)c1 (stereo in doubt) [Compound 44, (E)-4-(dimethylamino)-1-((10S)-4-((2-fluoro-4-((5-fluoropyridin-3-yl)oxy)-5-methylphenyl)amino)-7,8,10,11-tetrahydro-9H-6,10-methanopyrimido[4′,5′:5,6]pyrido[3,2-b][1,4,7]oxadiazonin-9-yl)but-2-en-1-one]	36 nM	337 nM
Cc1cc(Nc2ncnc3cc4c(nc23)N2CCN(C(=O)/C=C/CN(C)C)C(CO4)C2)ccc1Oc1cncc(F)c1 (stereo in doubt) [Compound 51, (E)-4-(dimethylamino)-1-((10S)-4-((4-((5-fluoropyridin-3-yl)oxy)-3-methylphenyl)amino)-7,8,10,11-tetrahydro-9H-6,10-methanopyrimido[4′,5′:5,6]pyrido[3,2-b][1,4,7]oxadiazonin-9-yl)but-2-en-1-one]	8.84 nM	177 nM
CN(C)C/C=C/C(=O)N1CCN2CC1COc1cc3ncnc(Nc4ccc(Oc5ccn6ncnc6c5)c(Cl)c4)c3nc12 (stereo in doubt) [Compound 32, (E)-1-((10S)-4-((4-([1,2,4]triazolo[1,5-a]pyridin-7-yloxy)-3-chlorophenyl)amino)-7,8,10,11-tetrahydro-9H-6,10-methanopyrimido[4′,5′:5,6]pyrido[3,2-b][1,4,7]oxadiazonin-9-yl)-4-(dimethylamino)but-2-en-1-one]	8.41 nM	920 nM
C=C(F)C(=O)N1CCN2CC1COc1cc3ncnc(Nc4ccc(Oc5ccn6ncnc6c5)c(C)c4)c3nc12 (stereo in doubt) [Compound 23, 1-((10S)-4-((4-([1,2,4]triazolo[1,5-a]pyridin-7-yloxy)-3-methylphenyl)amino)-7,8,10,11-tetrahydro-9H-6,10-methanopyrimido[4′,5′:5,6]pyrido[3,2-b][1,4,7]oxadiazonin-9-yl)-2-fluoroprop-2-en-1-one]	209 nM	> 10000 nM
Cc1cc(Nc2ncnc3cc4c(cc23)N2CCN(C(=O)/C=C/CN(C)C)C(CO4)C2)ccc1Oc1ccn2ncnc2c1 (stereo in doubt) [Compound 9, (E)-1-((10S)-4-((4-([1,2,4]triazolo[1,5-a]pyridin-7-yloxy)-3-methylphenyl)amino)-7,8,10,11-tetrahydro-9H-6,10-methano[1,4,7]oxadiazonino[3,2-g]quinazolin-9-yl)-4-(dimethylamino)but-2-en-1-one]	18.9 nM	> 10000 nM
CN(C)C/C=C/C(=O)N1CCN2CC1COc1cc3ncnc(Nc4ccc(Oc5ccn6ncnc6c5)cc4)c3nc12 (stereo in doubt) [Compound 31, (E)-1-((10S)-4-((4-([1,2,4]triazolo[1,5-a]pyridin-7-yloxy)phenyl)amino)-7,8,10,11-tetrahydro-9H-6,10-methanopyrimido[4′,5′:5,6]pyrido[3,2-b][1,4,7]oxadiazonin-9-yl)-4-(dimethylamino)but-2-en-1-one]	18.5 nM	> 10000 nM
Cc1cc(Nc2ncnc3ccc(NC4=NC(C)(C)CO4)cc23)ccc1Oc1ccn2ncnc2c1 [Tucatinib, tucatinib, reference compound]	12 nM	–
C=CC(=O)N1CCN2C[C@@H]1COc1cc3ncnc(Nc4ccc(Cc5ccn6ncnc6c5)c(C)c4)c3nc12 [Compound 19, 1-((10R)-4-((4-([1,2,4]triazolo[1,5-a]pyridin-7-ylmethyl)-3-methylphenyl)amino)-7,8,10,11-tetrahydro-9H-6,10-methanopyrimido[4′,5′:5,6]pyrido[3,2-b][1,4,7]oxadiazonin-9-yl)prop-2-en-1-one]	1930 nM	–
